From US9815851B2, “Pyrrolo carboxamides as modulators of orphan nuclear receptor RAR-related orphan receptor-gamma (RORγ, NR1F3) activity and for the treatment of chronic inflammatory and autoimmune diseases” (PHENEX PHARMACEUTICALS AG, priority 2011, dated 2017)
Like-named read-outs stand apart in the source and are kept apart here.

How the values were obtained:
[1] = target: T1, RORγ (UniProt P51449); experiment: RORγ Gal4 Reporter Gene Assay in 293T cells (firefly and renilla luciferase); type: cell-based, human
T1 sequence (P51449 1-518): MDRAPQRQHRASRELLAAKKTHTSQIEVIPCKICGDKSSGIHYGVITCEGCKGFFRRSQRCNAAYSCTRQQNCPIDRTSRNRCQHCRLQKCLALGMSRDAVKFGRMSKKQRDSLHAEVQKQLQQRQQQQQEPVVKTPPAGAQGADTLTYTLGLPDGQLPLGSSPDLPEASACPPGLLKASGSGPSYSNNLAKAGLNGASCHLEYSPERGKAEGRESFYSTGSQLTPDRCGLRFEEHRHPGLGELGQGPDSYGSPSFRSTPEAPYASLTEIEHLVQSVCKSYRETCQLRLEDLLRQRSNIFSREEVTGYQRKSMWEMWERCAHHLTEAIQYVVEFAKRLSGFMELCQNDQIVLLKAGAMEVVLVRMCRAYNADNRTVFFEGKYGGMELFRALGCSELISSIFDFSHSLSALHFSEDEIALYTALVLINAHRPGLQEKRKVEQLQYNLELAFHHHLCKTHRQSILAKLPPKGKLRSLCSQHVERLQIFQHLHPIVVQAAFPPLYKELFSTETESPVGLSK

[2] = target: T2, RORγ ligand binding domain (LBD) (Homo sapiens, UniProt P51449); experiment: TR-FRET Activity Assay (ligand sensing, RORγ-LBD / coactivator peptide interaction, LANCE); type: biochemical
T2 construct: made in house; host or cells: E. coli BL-21 (BL3), vector pDEST15
T2 sequence (P51449 269-508 limits assumed): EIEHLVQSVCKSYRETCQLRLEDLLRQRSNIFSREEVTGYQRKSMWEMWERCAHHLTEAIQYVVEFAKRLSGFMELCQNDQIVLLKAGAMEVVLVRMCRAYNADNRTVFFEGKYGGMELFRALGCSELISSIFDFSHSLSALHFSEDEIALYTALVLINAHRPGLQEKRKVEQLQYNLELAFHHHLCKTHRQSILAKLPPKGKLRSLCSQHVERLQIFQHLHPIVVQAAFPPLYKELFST

[3] = second value of the cell, Gal4 reporter gene assay in 293T cells, firefly luciferase
[4] = third value of the cell, Gal4 reporter gene assay in 293T cells, renilla normalised luciferase
[5] = first value of the cell FRET/FF/REN, TR-FRET activity assay, read-out: pIC50 (FRET) (converted)

Structure (SMILES)	pIC50 (FF) [1, 3]	pIC50 (REN) [1, 4]	IC50 [2, 5]	pIC50 (FF) [1]	pIC50 (REN) [1]	IC50 [2]
Cc1c(C(=O)NCCCCN2CCOCC2)cc(-c2cc(C(C)(C)C)cc(C(C)(C)C)c2)n1CC1CCCCC1 [1/74]				5.3/<4.7/<4.7	5.3/<4.7/<4.7	5010 nM
Cc1c(C(=O)NCCC[S+](C)[O-])cc(-c2cc(C(C)(C)C)c3c(c2)C2(CCO3)CC2)n1CC1CCCCC1 (stereo not drawn) [17/2]				6.0/6.6/6.5	6.0/6.6/6.5	1000 nM
Cc1c(C(=O)N[C@H]2CC[C@H](C(=O)O)CC2)cc(-c2cc(C(C)(C)C)c3c(c2)C2(CCO3)CC2)n1CC1CCCCC1 [17/57]	7.4	7.5	794 nM			
Cc1c(C(=O)NC2CC(C)(O)C2)cc(-c2cc(C(C)(C)C)c3c(c2)C2(CCO3)CC2)n1CC1CCCCC1 (stereo not drawn) [17/22]	6.5	6.6	1000 nM			
Cc1c(C(=O)NCC(C)(C)O)cc(-c2cc(C(=O)N(C)C(C)(C)C)cc(C3(C)CC3)c2)n1CC1CCCCC1 [1/110]	7.3	7.4	794 nM			
Cc1c(C(=O)NCCCO)cc(-c2cc(C(C)(C)C)cc(C(C)(C)C)c2)n1CC1CCCCC1 [1/65]	6.6	6.6	398 nM			
Cc1c(C(=O)NCC2COC2)cc(-c2ccc(S(=O)(=O)NC(C)(C)C)c(C(C)(C)C)c2)n1CC1CCCCC1 [1/126]	7.1	7.0	631 nM			
Cc1c(C(=O)NC2CCOCC2)cc(-c2ccc(S(=O)(=O)NC(C)(C)C)c(C(F)(F)F)c2F)n1CC1CCCCC1 [17/231]	7.5	7.7	251 nM			
Cc1c(C(=O)NC2COC2)cc(-c2cc(C(C)(C)C)nc(C(F)(F)F)c2)n1CC1CCCCC1 [9/15]				6.5/6.5/6.5	6.5/6.5/6.5	316 nM
Cc1c(C(=O)NC2(C#N)CCOCC2)cc(-c2ccc(S(=O)(=O)NC(C)(C)C)c(C(C)(C)C)c2)n1CC1CCCCC1 [17/208]				6.4/6.6/6.6	6.4/6.6/6.6	398 nM
Cc1c(C(=O)NCC(C)(C)c2nnn[nH]2)cc(-c2cc(C(C)(C)O)cc(C3(C)CC3)c2)n1CC1CCCCC1 [17/309]				6.1/6.7/6.8	6.1/6.7/6.8	794 nM
Cc1c(C(=O)NC2COC2)cc(-c2cc(C(F)(F)F)cc(C3(C)CC3)c2)n1CC1CCCCC1 [1/79]	7.2	7.2	398 nM			
CCN(C(C)(C)C)S(=O)(=O)c1ccc(-c2cc(C(=O)NCC(C)(C)O)c(C)n2CC2CCCCC2)cc1C(C)(C)C [9/10]				6.5/7.7/7.2	6.5/7.7/7.2	316 nM
Cc1c(C(=O)NCCC(C)(C)C(=O)O)cc(-c2cc(C(C)(C)C)cc(C3(C)CC3)c2)n1CC1CCCCC1 [17/73]	7.2	7.3	1000 nM			
CC(C)(C)NS(=O)(=O)c1ccc(-c2c(Cl)c(C(=O)NC3CCOCC3)c(Cl)n2CC2CCCCC2)c2ccccc12 [Example 23, 5-(4-(N-(tert-Butyl)sulfamoyl)naphthalen-1-yl)-2,4-dichloro-1-(cyclohexylmethyl)-N-(tetrahydro-2H-pyran-4-yl)-1H-pyrrole-3-carboxamide]				6.7/8.5/8.5	6.7/8.5/8.5	200 nM
Cc1c(C(=O)NC2CC2)cc(-c2ccc(S(=O)(=O)NC(C)(C)C)c(C(C)(C)C)c2)n1CC1CCCCC1 [17/99]	6.9	7.0	251 nM			
Cc1c(C(=O)NCC(C)(C)O)cc(-c2cc(C(C)N3CCOCC3)cc(C(C)(C)C)c2)n1CC1CCCCC1 (stereo not drawn) [1/109]	< 4.7	< 4.7	12600 nM			
COCC(=O)NC(C)(C)CNC(=O)c1cc(-c2cc(C(C)(C)C)cc(C3(C)CC3)c2)n(CC2CCCCC2)c1C [17/122]				6.4/7.6/7.5	6.4/7.6/7.5	398 nM
Cc1c(C(=O)NC2COC2)cc(-c2ccc(C(=O)NC(C)(C)C)c(C(C)(C)C)c2)n1CC1CCCCC1 [1/30]	6.4	6.2	3980 nM			
COC(C)(C)c1cc(-c2cc(C(=O)NC3CCOCC3)c(C)n2CC2CCCCC2)cc2c1OCCC21CC1 [17/325]				5.6/7.1/7.2	5.6/7.1/7.2	2510 nM
Cc1c(C(=O)NCC(C)(C)O)cc(-c2cn(S(=O)(=O)N3CCCCC3)c3ccccc23)n1CC1CCCCC1 [9/2]	7.4	7.5	631 nM			
Cc1c(C(=O)NCCCCCO)cc(-c2ccc(S(=O)(=O)NC(C)(C)C)c(C(C)(C)C)c2)n1CC1CCCCC1 [1/128]	7.2	7.2	501 nM			

Second part, led by results:

pIC50 (FF) [1, 3]	pIC50 (REN) [1, 4]	IC50 [2, 5]	Structure (SMILES)	pIC50 (FF) [1]	pIC50 (REN) [1]	IC50 [2]
7.0	7.1	398 nM	Cc1c(C(=O)NC2CCOCC2)cc(-c2ccc(S(=O)(=O)NC(C)(C)C)c(Br)c2)n1CC1CCCCC1 [17/157]			
7.2	7.3	316 nM	COC(=O)[C@H]1C[C@H](NC(=O)c2cc(-c3cc(C(C)(C)C)cc(C4(C)CC4)c3)n(CC3CCCCC3)c2C)C1 [17/154]			
8.1	8.0	398 nM	CC(C)(C)NS(=O)(=O)c1ccc(-c2cc(C(=O)N[C@H]3C[C@H](C(=O)O)C3)c(Cl)n2CC2CCCCC2)c2ccccc12 [22/2]			
7.7	7.7	316 nM	Cc1c(C(=O)NCC(C)(C)C(N)=O)cc(-c2ccc(S(=O)(=O)NC(C)(C)C)c(C(F)(F)F)c2)n1CC1CCCCC1 [17/202]			
7.7	7.9	398 nM	Cc1c(C(=O)NCCC(C)(C)C(=O)O)cc(-c2ccc(-c3ccnn3C(C)C)c(C(C)(C)C)c2)n1CC1CCCCC1 [26/6]			
6.9	6.9	501 nM	CC(C)(C)NS(=O)(=O)c1ccc(-c2cc(C(=O)NCCC(C)(C)C(=O)O)c(F)n2CC2CCCCC2)cc1C(F)(F)F [20/6]			
7.5	7.6	794 nM	Cc1c(C(=O)N[C@H]2C[C@H](C(=O)O)C2)cc(-c2ccc(S(=O)(=O)NC(C)(C)C)c3ccccc23)n1CC1CCCCC1 [17/240]			
6.6	6.8	794 nM	Cc1c(C(=O)NCCC(C)(C)C(=O)O)cc(-c2ccc(S(=O)(=O)NC(C)(C)C)c(OC(F)F)c2)n1CC1CCCCC1 [17/167]			
7.3	7.4	2510 nM	Cc1c(C(=O)N[C@H]2C[C@H](C(=O)O)C2)cc(-c2cc(C(=O)NC(C)(C)C)cc(C(C)(C)C)c2)n1CC1CCCCC1 [17/330]			
7.8	7.9	1000 nM	Cc1c(C(=O)N[C@H]2C[C@H](C(=O)O)C2)cc(-c2cc(C(C)(C)C)cc(C3(C)CC3)c2)n1CC1CCCCC1 [17/326]			
7.4	7.5	1260 nM	Cc1c(S(=O)(=O)NC(C)(C)C)ccc(-c2cc(C(=O)NCCC(C)(C)C(=O)O)c(C)n2CC2CCCCC2)c1C(F)(F)F [17/286]			
6.3	6.5	794 nM	Cc1c(C(=O)NC2CCOCC2)cc(-c2cc3c(c(C(C)(C)C)c2)OCCC3F)n1CC1CCCCC1 (stereo not drawn) [18/4]			
